Tests used:
[1] = in vitro; assay type: in vitro ADME; conditions: human, Caco-2
Description: Formula 1 was evaluated for cellular permeability using Caco-2 cell monolayers. Both the apical-to-basolateral (A-B) and basolateral-to-apical (B-A) bidirectional permeability and efflux ratios were evaluated in the assay.

[2] = tested on: CCI-induced neuropathic pain; assay: CCI model in mice, IP route; assay type: in vivo; conditions: CCl model
Description: IP route of administration was used for initial proof of principle studies with Formula 1. However, the chosen route of administration in most of the studies conducted with Formula 1 was either SC or PO. A brief protocol outline is provided in each section, for the purpose of understanding the results without elaborating on all the detailed procedures.
Table 7 summarizes the activity of Formula 1 in mice models of neuropathic pain following repeated daily administration using different routes of administration. […] Treatment with Formula 1 show activity without CNS effect.

[3] = in vivo
Description: Formula 1 was discovered following a comprehensive Senerga® Phenotypic screening.

[4] = assay type: in vivo; conditions: naïve mice, 10 mg/kg IP
Description: Changes in responses of normal withdrawal threshold to heat and cold stimuli in naïve animals following drug treatment may reflect a CNS effect, as in the case of cannabinoids or opioids. Therefore, the response of the naïve mice post-Formula 1 administration at a dose of 10 mg/kg IP was assessed (Table 5).

[5] = tested on: CCI-induced neuropathic pain; assay: Chronic constriction injury (CCI) model in mice, SC route; assay type: in vivo; conditions: for Dose of maximum activity / Duration of activity at maximum effect / Level of activity (% of maximum effect-baseline) / Peak of activity (T): CCl model, mice
Description: Study outline in brief: The sciatic nerve of mice was exposed under anesthesia, and 3 loose ligations were placed around the nerve. Animals were allowed to recover for 3 days. Tactile allodynia (von Frey testing) and thermal (hot at 50±1° C. and cold at 2±1° C.) hyperalgesia were then assessed. Animals that experienced tactile allodynia were assigned to their treatment groups (vehicle, gabapentin and Formula 1 at different doses). Animals were subsequently treated daily for a period of 5 days with either vehicle or Formula 1 at different doses. Gabapentin at a dose of 150 mg/kg was dosed only on days of testing (day 3 and day 7).

## CC(C)(C)C(=O)O[C@@H]1[C@@H]2[C@H]3C[C@H](C[C@@H]1N3Cc1ccccn1)CN2C(=O)CC(F)(F)F (relative stereo) [Formula 1, (2S*,3S*,3aS*,6R*,7aR*)-1-(pyridin-2-ylmethyl)-4-(3,3,3-trifluoropropanoyl)octahydro-1H-2,6-methanopyrrolo[3,2-b]pyridin-3-yl pivalate]
[1]
  efflux ratio: 10.4
[1]; apical-to-basolateral
  Papp A→B: 6.6 ×10⁻⁶ cm/s
[1]; basolateral-to-apical
  Papp B→A: 68.3 ×10⁻⁶ cm/s
[2]
  Dose of maximum activity: 30 mg/kg
  Duration of activity at maximum effect: >4 H
  Peak of activity (T): 2 H
[2]; repeated daily administration
  Level of activity (% of maximum effect-baseline): 33%
[3]
  activity in pain-related models: showed activity in pain-related models
  effect on blood pressure: no effect on blood pressure
  effect on bodyweight or food consumption: no effect on bodyweight or food consumption
  effect on specific CNS-related tests: no effect on specific CNS-related tests
  effect on swelling: not effective on swelling
  post-mortem finding: no post-mortem finding
  withdrawal threshold of naïve animals: without affecting the withdrawal threshold of naïve animals
[4]
  Response to cold stimuli (2 ± 1° C. ): 20.6 ± 11.39 s
  Response to heat stimuli (50 ± 1° C. ): 12.87 ± 2.59 s
  basal response to cold or heat stimuli: not effective in altering the basal response
[5]; CCI mice, SC
  effect on response time in the hotplate test: not significant
[5]; CCI mice, SC 30 mg/kg and 60 mg/kg
  response time to cold stimuli: increased response time to cold stimuli
[5]; CCI mice, SC 60 mg/kg, daily repeated treatment
  withdrawal force (von Frey): significant increase in the withdrawal force
[5]; CCI mice, SC, following a single dose
  time of peak activity on cold response: 2 h
[5]; CCI mice, SC, post-dosing following repeated daily dosing
  time of peak activity on cold response: 2 h
[5]; CCI mice, SC, repeated dosing
  tolerance effect: No tolerance effect was observed
[5]; SC, first SC line
  Dose of maximum activity: 60 mg/kg
  Duration of activity at maximum effect: >4 H
  Level of activity (% of maximum effect-baseline): 43%
  Peak of activity (T): 2 H
[5]; SC, second SC line (readout not given)
  Level of activity (% of maximum effect-baseline): 100%
[5]; SC, second SC line
  Dose of maximum activity: 30 mg/kg
  Duration of activity at maximum effect: >4 H
  Peak of activity (T): 2 H

Source: patent publication US10351566B2, “Therapeutic compounds for pain and synthesis thereof” (priority 2015, dated 2019)
